The target in assay [1] is T1, MK2 (Homo sapiens (Human), UniProt P49137).
For assay [2], the target named is T1, MK2. In words: MK2 cellular assay, total and phospho-Hsp27 (Serine 78) by MSD ELISA (Thp1). Format: cell-based. An outline of the steps:
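PMA-differentiated (10 ng/mL, 72 h) Thp-1 cells were pretreated with compound (top 3000 nM) for 1 h at 37 °C, then stimulated with 50 ng/mL LPS for 45 min. Lysate phospho-Hsp27 (Ser78) and total Hsp27 were read by MSD electrochemiluminescence ELISA, and the value is expressed as percent phospho/total signal per well.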
For orientation: An ELISA detects its analyte on a solid surface through an enzyme-linked reagent.

In assay [3] the target is p38α activated, mitogen-activated protein kinase-activated protein kinase 2 (MAPKAP-K2 or MK2) enzyme (Homo sapiens (Human), UniProt P49137). In words: MK2 Omnia continuous-read kinase assay for compound potency. The assay is classed as biochemical. An outline of the steps:
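Continuous fluorescence read (λex360/λem485) with 0.4 nM p38α-activated MK2, 10 μM ATP (apparent KM) and 10 μM S/T3-Sox peptide, monitored over 120 min at room temperature. Background-corrected initial slopes gave % inhibition and IC50 with Hill slope; exponential fits gave kobs, yielding apparent kinact/KI.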

[4] abbreviates: percentage of modified protein after 60 minutes at room temperature, 10-fold excess of compound, MALDI (I-1 to I-50), magnetic bead MALDI (I-51 to I-129).
Where [5] appears, read: Thp-1 cells, 1 hour compound, 50 ng/mL LPS 45 minutes, p-HSP27 (Ser78)/total HSP27, read-out: pHSP27 signaling EC50.
Where [6] appears, read: [MK-2]=0.4 nM, [ATP]=10 μM, [ST3-Sox]=10 μM, read-out: MK2 IC50.

Where two headings read alike, the source gives them in different places.
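Wherever Mass Modification is given: covalent binding read from centroid mass shift of compound-treated versus untreated intact MK2, shift divided by compound molecular weight, giving fraction of total protein bound.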

T1 sequence (P49137 whole entry): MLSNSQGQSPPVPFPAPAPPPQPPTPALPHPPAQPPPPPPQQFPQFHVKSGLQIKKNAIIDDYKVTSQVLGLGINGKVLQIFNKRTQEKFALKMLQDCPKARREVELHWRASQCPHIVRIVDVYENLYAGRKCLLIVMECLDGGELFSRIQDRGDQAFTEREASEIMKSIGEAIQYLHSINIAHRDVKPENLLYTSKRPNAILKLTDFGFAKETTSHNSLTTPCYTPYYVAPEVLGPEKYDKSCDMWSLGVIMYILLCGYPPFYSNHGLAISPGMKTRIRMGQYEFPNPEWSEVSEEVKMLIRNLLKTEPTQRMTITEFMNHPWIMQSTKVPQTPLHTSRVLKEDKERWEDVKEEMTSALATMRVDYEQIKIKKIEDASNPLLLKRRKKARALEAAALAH
Sequence of p38α activated, mitogen-activated protein kinase-activated protein kinase 2 (MAPKAP-K2 or MK2) enzyme (P49137 whole entry): as above

In general, EC50 refers to the concentration giving half of the maximal effect. Broadly, the IC50 is the concentration needed to halve the response being measured. In the case of `C[C@@H]1CNc2c(sc3ccc4nc(Oc5nc(Cl)ncc5COC5(C)COC5)ccc4c23)C(=O)N1` [I-103, (R)-3-((2-chloro-5-(((3-methyloxetan-3-yl)oxy)methyl)pyrimidin-4-yl)oxy)-10-methyl-9,10,11,12-tetrahydro-8H-[1,4]diazepino[5′,6′:4,5]thieno[3,2-f]quinolin-8-one], the “Mass Modification” value in assay [1] (setting [4]) is on record as “E (mass modification of ≧70%)”. Further, in assay [2] (setting [5]), the 50% effective concentration (EC50) fell in the range of 101 to 500 nM. In addition, the IC50 in assay [3] (setting [6]) was < 100 nM.
On to `C[C@@H]1CNc2c(sc3ccc4nc(Oc5nc(Cl)nc6c5CS(=O)(=O)CC6)ccc4c23)C(=O)N1` [I-105, (R)-3-((2-chloro-6,6-dioxido-7,8-dihydro-5H-thiopyrano[4,3-d]pyrimidin-4-yl)oxy)-10-methyl-9,10,11,12-tetrahydro-8H-[1,4]diazepino[5′,6′:4,5]thieno[3,2-f]quinolin-8-one], for which, in assay [1] (setting [4]), the “Mass Modification” value was “E (mass modification of ≧70%)”. The EC50 in assay [2] (setting [5]) lay within 101 to 500 nM. Also, the IC50 in assay [3] (setting [6]) is < 100 nM.
The corresponding values for `CO[C@@H]1CCCN(Cc2cnc(Cl)nc2Oc2ccc3c(ccc4sc5c(c43)NC[C@@H](C)NC5=O)n2)C1` [I-107, (R)-3-((2-chloro-5-(((R)-3-methoxypiperidin-1-yl)methyl)pyrimidin-4-yl)oxy)-10-methyl-9,10,11,12-tetrahydro-H-[1,4]diazepino[5′,6′:4,5]thieno[3,2-f]quinolin-8-one] are “E (mass modification of ≧70%)”, < 100 nM and 101 to 500 nM.
Turning to `C[C@@H]1CNc2c(sc3ccc4nc(Oc5nc(Cl)ncc5COCCC#N)ccc4c23)C(=O)N1` [I-111, (R)-3-((2-chloro-4-((10-methyl-8-oxo-9,10,11,12-tetrahydro-8H-[1,4]diazepino[5′,6′:4,5]thieno[3,2-f]quinolin-3-yl)oxy)pyrimidin-5-yl)methoxy)propanenitrile], the “Mass Modification” value in assay [1] (setting [4]) is “E (mass modification of ≧70%)”. Besides, the concentration for a half-maximal effect (EC50) in assay [2] (setting [5]) lay in the range of 101 to 500 nM. Besides, the IC50 in assay [3] (setting [6]) was < 100 nM.
Consider `C[C@@H]1CNc2c(sc3ccc4nc(Oc5nc(Cl)ncc5CS(C)(=O)=O)ccc4c23)C(=O)N1` [I-112, (R)-3-((2-chloro-5-((methylsulfonyl)methyl)pyrimidin-4-yl)oxy)-10-methyl-9,10,11,12-tetrahydro-8H-[1,4]diazepino[5′,6′:4,5]thieno[3,2-f]quinolin-8-one], for which, in assay [1] (setting [4]), the “Mass Modification” value was “E (mass modification of ≧70%)”. The half-maximal effective concentration (EC50) in assay [2] (setting [5]) was 101 to 500 nM. Also, in assay [3] (setting [6]), the IC50 is < 100 nM.
On to `C[C@@H]1CNc2c(sc3ccc4nc(Oc5nc(Cl)ncc5CN5C6CCC5COC6)ccc4c23)C(=O)N1` [I-114, (R)-3-((5-((3-oxa-8-azabicyclo[3.2.1]octan-8-yl)methyl)-2-chloropyrimidin-4-yl)oxy)-10-methyl-9,10,11,12-tetrahydro-8H-[1,4]diazepino[5′,6′:4,5]thieno[3,2-f]quinolin-8-one], for which, in assay [1] (setting [4]), the “Mass Modification” value is “E (mass modification of ≧70%)”. Also, the half-maximal effective concentration (EC50) in assay [2] is < 100 nM. Besides, in assay [3], the IC50 lay within 101 to 500 nM.
Consider `C[C@@H]1CNc2c(sc3ccc4nc(Oc5nc(Cl)ncc5CN5C[C@@H](C)N[C@@H](C)C5)ccc4c23)C(=O)N1` [I-115, (R)-3-((2-chloro-5-(((3R,5S)-3,5-dimethylpiperazin-1-yl)methyl)pyrimidin-4-yl)oxy)-10-methyl-9,10,11,12-tetrahydro-8H-[1,4]diazepino[5′,6′:4,5]thieno[3,2-f]quinolin-8-one], for which the “Mass Modification” value in assay [1] (setting [4]) is listed as “E (mass modification of ≧70%)”. Moreover, in assay [2] (setting [5]), the half-maximal effective concentration (EC50) is > 1000 nM. In assay [3] (setting [6]), the half-maximal inhibitory concentration (IC50) was 101 to 500 nM.
The corresponding values for `C[C@@H]1CNc2c(sc3ccc4nc(Oc5nc(Cl)ncc5Br)ccc4c23)C(=O)N1` [I-116, (R)-3-((5-bromo-2-chloropyrimidin-4-yl)oxy)-10-methyl-9,10,11,12-tetrahydro-8H-[1,4]diazepino[5′,6′:4,5]thieno[3,2-f]quinolin-8-one] are “E (mass modification of ≧70%)”, < 100 nM and < 100 nM.
As for `C[C@@H]1CNc2c(sc3ccc4nc(Oc5cc(CN(C)C(C)(C)C)nc(Cl)n5)ccc4c23)C(=O)N1` [I-118, (R)-3-((6-((tert-butyl(methyl)amino)methyl)-2-chloropyrimidin-4-yl)oxy)-10-methyl-9,10,11,12-tetrahydro-8H-[1,4]diazepino[5′,6′:4,5]thieno[3,2-f]quinolin-8-one], the “Mass Modification” value in assay [1] (setting [4]) is reported as “E (mass modification of ≧70%)”. Besides, in assay [2] (setting [5]), the 50% effective concentration (EC50) was 101 to 500 nM. Moreover, in assay [3] (setting [6]), the half-maximal inhibitory concentration (IC50) was in the range of 501 to 999 nM.
Consider `C[C@@H]1CNc2c(sc3ccc4nc(Oc5nc(F)nc6c5COC6)ccc4c23)C(=O)N1` [I-119, (R)-3-((2-fluoro-5,7-dihydrofuro[3,4-d]pyrimidin-4-yl)oxy)-10-methyl-9,10,11,12-tetrahydro-8H-[1,4]diazepino[5′,6′:4,5]thieno[3,2-f]quinolin-8-one], for which, in assay [1] (setting [4]), the “Mass Modification” value was “F (mass modification of 31-69%)”. Also, the EC50 in assay [2] (setting [5]) is < 100 nM. Besides, the IC50 in assay [3] (setting [6]) was < 100 nM.
`C[C@@H]1CNc2c(sc3ccc4nc(Oc5nc(Cl)ncc5C5=CCN(C)CC5)ccc4c23)C(=O)N1` [I-122]: the “Mass Modification” value in assay [1] (setting [4]) is listed as “E (mass modification of ≧70%)”. In addition, in assay [2] (setting [5]), the EC50 fell in the range of 101 to 500 nM. Also, the half-inhibitory concentration (IC50) in assay [3] (setting [6]) is < 100 nM.
On the same counts, the results for `C[C@@H]1CNc2c(sc3ccc4nc(Oc5nc(Cl)ncc5C5=CCOCC5)ccc4c23)C(=O)N1` [I-124, (R)-3-((2-chloro-5-(3,6-dihydro-2H-pyran-4-yl)pyrimidin-4-yl)oxy)-10-methyl-9,10,11,12-tetrahydro-8H-[1,4]diazepino[5′,6′:4,5]thieno[3,2-f]quinolin-8-one] are “E (mass modification of ≧70%)”, 101 to 500 nM and < 100 nM.
Consider `C[C@@H]1CNc2c(sc3ccc4nc(Oc5nc(Cl)nc6c5CN(C)CC6)ccc4c23)C(=O)N1` [I-126, (R)-3-((2-chloro-6-methyl-5,6,7,8-tetrahydropyrido[4,3-d]pyrimidin-4-yl)oxy)-10-methyl-9,10,11,12-tetrahydro-8H-[1,4]diazepino[5′,6′:4,5]thieno[3,2-f]quinolin-8-one], for which, in assay [1], the “Mass Modification” value was “E (key: E: mass modification of ≧70%; F: mass modification of 31-69%; G: mass modification ≦30%)”. For the same compound, the EC50 in assay [2] (setting [5]) was < 100 nM. Moreover, the IC50 in assay [3] (read-out: MK2 IC50) is < 100 nM.
Take `C[C@@H]1CNc2c(sc3ccc4nc(Oc5nc(Cl)ncc5CN5CCC(OCCF)CC5)ccc4c23)C(=O)N1` [I-131, (R)-3-((2-chloro-5-((4-(2-fluoroethoxy)piperidin-1-yl)methyl)pyrimidin-4-yl)oxy)-10-methyl-9,10,11,12-tetrahydro-8H-[1,4]diazepino[5′,6′:4,5]thieno[3,2-f]quinolin-8-one]: the “Mass Modification” value in assay [1] (setting [4]) was “E (mass modification of ≧70%)”. Also, the EC50 in assay [2] (setting [5]) is < 100 nM. For the same compound, the half-inhibitory concentration (IC50) in assay [3] (setting [6]) is < 100 nM.

The record behind these values is US9790235B2, “MK2 inhibitors and uses thereof” (Celgene CAR LLC, priority 2014, dated 2017).
